Source: patent publication US10785975B2, “Water and feed antimicrobial preservative” (priority 2009, dated 2020)
Where two headings read alike, the source gives them in different places.

Tests used:
[1] = general description in background; cited from earlier work
M. gypseum = settings: acids tested independently, cited from earlier work
Salmonella typhimurium [2] = experiment: Example 3: buffered organic acid mixtures with pelargonic acid in water; format: cell-based
[3] = Method: Pelargonic acid is a naturally occurring fatty acid found in almost all species of animals and plants. Because it contains nine carbon atoms, it is also called nonanoic acid has the chemical formula CH3(CH2)7COOH. It is found at low levels in many common foods and is readily broken down in the environment. It is an oily colorless fluid that solidifies at lower temperatures.
In this experiment, the effect of free fatty acids was evaluated. […] The pH of the deionized water solutions was recorded and any problems with solubility noted
Myristic acid (5%, 10% and 20%) diluted in propionic acid was tested to determine its effectiveness against salmonella in feed.

Salmonella typhimurium [4] = experiment: Study 5: propionic, acetic and pelargonic acids alone or in combination in water; format: cell-based
Method: Propionic, acetic and pelargonic acids by themselves or in combination as listed were added to sterile deionized water to make at a 0.05%, 0.04%, 0.03%, 0.02% and 0.01% total acid solutions. The pHs of the deionized water solutions were recorded and any problems with solubility noted. 100 ul of a nutrient broth culture of Salmonella typhimurium was added to each dilution tube. After addition, tubes were vortexed and allowed to stand. At 24 hours after addition of the inoculum, 100 ul of the solution was plated on Standard Plate agar (triplicate plates). Plates were incubated at 37° C. for 24 hours prior to enumeration.

Salmonella typhimurium [5] = experiment: Example 2: effect of carbon chain length of individual organic acids on antimicrobial activity in water; format: cell-based; set-up: MIC at 4 HR / MIC at 24 FIR: unit not given here; settings: Minimum Inhibitory Concentration of Organic Acids against Salmonella, by linear regression
Method: 100 ul of a nutrient broth culture of Salmonella typhimurium was added to each dilution tube. After addition, tubes were vortexed and allowed to stand. At 4 and 24 hours after addition of the inoculum, 100 ul of the solution was plated on agar (triplicate plates). Plates were incubated at 37° C. for 24 hours prior to enumeration. The minimum effective dose of each acid was be determined by linear regression: […]

C. irritans = settings: cited from earlier work
[6] = Product Conc. 0.025 (% total acid solution in water), 4 hr
[7] = Product Conc. 0.025 (% total acid solution in water), 24 hr
[8] = Product Conc. 0.05 (% total acid solution in water), 4 hr
[9] = Product Conc. 0.05 (% total acid solution in water), 24 hr
[10] = Product Conc. 0.075 (% total acid solution in water), 4 hr
[11] = Product Conc. 0.075 (% total acid solution in water), 24 hr
[12] = Product Conc. 0.1 (% total acid solution in water), 4 hr
[13] = Product Conc. 0.1 (% total acid solution in water), 24 hr

Structure (SMILES): CCCCCCCCC(=O)O [Pelargonic acid]
- solubility in water [1]: almost insoluble in water
- minimum inhibitory concentration (MTC) to prevent growth of M. gypseum (M. gypseum; in liquid media): 50 µg/mL
- minimum inhibitory concentration (MTC) to prevent growth of M. gypseum (M. gypseum; on solid media): 40 µg/mL
- MIC at 4 HR (Salmonella typhimurium [2]; Minimum Inhibitory Concentration of Pelargonic when mixed with acetic or propionic acid (buffered to pH 3), by linear regression, 4 hr): <0.025
- MIC at 24 HR (Salmonella typhimurium [2]; Minimum Inhibitory Concentration of Pelargonic when mixed with acetic or propionic acid (buffered to pH 3), by linear regression, 24 hr): <0.025
- Salmonella at time Interval 4 hr % reduction (Salmonella typhimurium [2]; [6]): 100%
- Salmonella at time Interval 4 hr cfu/g (Salmonella typhimurium [2]; [6]): 0 cfu/g
- Salmonella at time Interval 24 hr % reduction (Salmonella typhimurium [2]; [7]): 100%
- Salmonella at time Interval 24 hr cfu/g (Salmonella typhimurium [2]; [7]): 0 cfu/g
- Salmonella at time Interval 4 hr % reduction (Salmonella typhimurium [2]; [8]): 100%
- Salmonella at time Interval 4 hr cfu/g (Salmonella typhimurium [2]; [8]): 0 cfu/g
- Salmonella at time Interval 24 hr % reduction (Salmonella typhimurium [2]; [9]): 100%
- Salmonella at time Interval 24 hr cfu/g (Salmonella typhimurium [2]; [9]): 0 cfu/g
- Salmonella at time Interval 4 hr % reduction (Salmonella typhimurium [2]; [10]): 100%
- Salmonella at time Interval 4 hr cfu/g (Salmonella typhimurium [2]; [10]): 0 cfu/g
- Salmonella at time Interval 24 hr % reduction (Salmonella typhimurium [2]; [11]): 100%
- Salmonella at time Interval 24 hr cfu/g (Salmonella typhimurium [2]; [11]): 0 cfu/g
- Salmonella at time Interval 4 hr % reduction (Salmonella typhimurium [2]; [12]): 100%
- Salmonella at time Interval 4 hr cfu/g (Salmonella typhimurium [2]; [12]): 0 cfu/g
- Salmonella at time Interval 24 hr % reduction (Salmonella typhimurium [2]; [13]): 100%
- Salmonella at time Interval 24 hr cfu/g (Salmonella typhimurium [2]; [13]): 0 cfu/g
- solubility in water [3]: not soluble in water
- Salmonella 24 hr afterTreatment (cfu/g) (Salmonella typhimurium [4]; Test Product 0.01 % total acid solution in water): 1400 cfu/g
- Salmonella 24 hr afterTreatment (cfu/g) (Salmonella typhimurium [4]; Test Product 0.02 % total acid solution in water): 1300 cfu/g
- Salmonella 24 hr afterTreatment (cfu/g) (Salmonella typhimurium [4]; Test Product 0.04 % total acid solution in water): 1500 cfu/g
- Salmonella 24 hr afterTreatment (cfu/g) (Salmonella typhimurium [4]; Test Product 0.05 % total acid solution in water): 850 cfu/g
- MIC at 4 HR (Salmonella typhimurium [5]; 4 hr): 0.063
- MIC at 24 FIR (Salmonella typhimurium [5]; 24 hours): <0.025
- controlling the growth of the parasite C. irritans (C. irritans): effective in controlling the growth
